Laboratory results: patent US20250064712A1, “METHOD FOR AMPLIFYING EXPRESSION OF EPIDERMAL BARRIER FUNCTION-RELATED GENE” (J-Network, Inc., priority 2023, published 2025)

Key:
LOR gene = experiment: Test for amplification of mRNA expression of LOR gene (quantitative real-time PCR, GAPDH internal standard); assay type: cell-based, human; conditions: NHEKs, GDM12 100 μM, culture time 30 hr, control = 1
Procedure: (§1) Normal human epidermal keratinocytes (NHEKs) were seeded on a 96-well plate at a cell density of 2.0×10^4cells/well using HuMedia-KG2 medium (manufactured by Kurabo Industries Ltd.), and cultured under the conditions of 37° C. and 5% CO2 for 24 hours.
(§2) Thereafter, a diacylglycerol PEG adduct was added thereto using HuMedia-KB2 medium (manufactured by Kurabo Industries Ltd.), and each was cultured under the conditions of 37° C. and 5% CO2 for a predetermined time. Table 1 represents the target gene, the types of diacylglycerol PEG adduct added, the adding amount, and the culture time. A control (no addition) was also cultured under the same conditions.
(§3) After the cells were cultured for each predetermined time, RNA was extracted from the cells of each sample and control. The extracted RNA was reverse-transcribed to prepare cDNA, and the mRNA of the target gene was quantified by quantitative real-time PCR expression analysis. GAPDH (glyceraldehyde 3-phosphate dehydrogenase) was used as an internal standard.
(§4) In the analysis, the mRNA expression level of each target gene was corrected with the value of the expression level of GAPDH, which is an internal standard in the same sample, and the correction value of the sample was calculated as a relative expression level when the correction value of the control was set to 1.

IVL gene = experiment: Test for amplification of mRNA expression of IVL gene (quantitative real-time PCR, GAPDH internal standard); assay type: cell-based, human; conditions: NHEKs, GDM12 100 μM, culture time 30 hr, control = 1
Procedure: as §1, §2, §3, §4

SULT2B1 gene = experiment: Test for amplification of mRNA expression of SULT2B1 gene (quantitative real-time PCR, GAPDH internal standard); assay type: cell-based, human; conditions: NHEKs, control = 1
Procedure: as §1, §2, §3, §4

PPARA gene = experiment: Test for amplification of mRNA expression of PPARA gene (quantitative real-time PCR, GAPDH internal standard); assay type: cell-based, human; conditions: NHEKs, GDS23 50 μM, culture time 24, 30, 36 hr, control = 1
Procedure: as §1, §2, §3, §4

CERS3 gene = experiment: Test for amplification of mRNA expression of CERS3 gene (quantitative real-time PCR, GAPDH internal standard); assay type: cell-based, human; conditions: NHEKs, GDS23 50 μM, culture time 36 hr, control = 1
Procedure: as §1, §2, §3, §4

loricrin = experiment: Test for detecting production of loricrin, loricrin immunostaining method; assay type: cell-based, human; conditions: LabCyte EPI-MODEL24 6D, 50 μL of 2% GDS23 solution applied for 24 hours, collected 9 days after application, vs purified water control
Procedure: A test for detecting the production of loricrin encoded by the LOR genes was performed using two staining methods: an immunostaining method using an anti-loricrin antibody and a hematoxylin-eosin staining method.
Treatment of epidermal model Three-dimensional cultured human epidermal model (LabCyte EPI-MODEL24 6D: manufactured by Japan Tissue Engineering Co., Ltd.) was cultured in a medium (assay medium: manufactured by Japan Tissue Engineering Co., Ltd.) at 37° C. for 24 hours. […]
After the blocking agent was aspirated, an anti-loricrin antibody (manufactured by Proteintech Japan) (diluted 50 times with a 3% BSA/PBS solution) was added to the section, and the primary antibody reaction was carried out overnight at 4° C. Thereafter, a Goat Anti-Rabbit IgG H&L (Alexa Fluor (registered trademark) 488 antibody (manufactured by Abcam PLC) (diluted 250 times with a 3% BSA/PBS solution) was added thereto, and the secondary antibody reaction was carried out for 1 hour at room temperature in a dark place. And then, nuclear staining was performed with DAPI diluted 200 times with a 3% BSA/PBS solution. A fluorescence microscope (BZ-X810, KEYENCE) was then used to observe the green and blue fluorescence. The green fluorescence indicates the presence of loricrin. The blue fluorescence stains the nuclei of the epidermal model to confirm that the cells are normal.

[1] = system: Three-dimensional cultured human epidermal model; experiment: Hematoxylin-eosin staining and DAPI nuclear staining of epidermal model (cell abnormality check); assay type: cell-based; conditions: LabCyte EPI-MODEL24 6D, 50 μL of 2% GDS23 solution applied for 24 hours, collected 9 days after application
Procedure: Treatment of epidermal model Three-dimensional cultured human epidermal model (LabCyte EPI-MODEL24 6D: manufactured by Japan Tissue Engineering Co., Ltd.) was cultured in a medium (assay medium: manufactured by Japan Tissue Engineering Co., Ltd.) at 37° C. for 24 hours.
Thereafter, the medium was exchanged, and 50 μL of a sample prepared with purified water (2% preparation solution of GDS23) was applied to the surfaces of the stratum corneum, followed by continuous culture for 24 hours. The control for comparison was applied with purified water only.
Subsequently, the sample on the surface of the stratum corneum of the epidermal model was sucked up with a sterilized cotton swab to remove the excess sample, and then the epidermal model was continuously cultured without newly applying the sample on the surface of the stratum corneum, and the epidermal model was collected 9 days after the sample was applied.
After the blocking agent was aspirated, an anti-loricrin antibody (manufactured by Proteintech Japan) (diluted 50 times with a 3% BSA/PBS solution) was added to the section, and the primary antibody reaction was carried out overnight at 4° C. […]

For PEG-12 glycerol dimyristate [GDM12], the “relative expression level of LOR genes” value (LOR gene) was “about 1.3 times that of the control”, the “relative expression level of IVL genes” value (IVL gene) was “about 1.5 times that of the control” and the “relative expression level of SULT2B1 genes” value (SULT2B1 gene; GDM12 100 μM, culture time 30 hr) was “about 1.6 times that of the control”.

PEG-23 glycerol distearate [GDS23] was tested, and the “relative expression level of PPARA genes” value (PPARA gene) was “about 2.2 times that of the control”, the “relative expression level of CERS3 genes” value (CERS3 gene) was “about 2 times that of the control” and the “relative expression level of SULT2B1 genes” value (SULT2B1 gene; GDS23 50 μM, culture time 24 hr) was “about 1.2 times that of the control”. For the same substance, the “production amount of loricrin in the stratum corneum (green fluorescence)” value (loricrin) was “higher than that of the control epidermal model” and the “abnormality in the cells of the epidermal model (blue fluorescence, hematoxylin-eosin staining)” value [1] was “no abnormality in the cells of the epidermal model”.
